≈ marks a conversion by molar mass, not a printed value.
Key:
Assay type in all cases: functional
[1] = test system: Candida albicans; experiment: Antifungal activity against Candida albicans
[2] = test system: Nakaseomyces glabratus; experiment: Antifungal activity against Candida glabrata ATCC 36583 by broth microdilution method
[3] = test system: Candida tropicalis; experiment: Antifungal activity against Candida tropicalis by broth microdilution method
[4] = test system: Candida albicans; experiment: Antifungal activity against Candida albicans TA
[5] = test system: Candida albicans; experiment: Potency index, ratio for MIC of fluconazole to MIC of compound for antifungal activity against Candida albicans TA
[6] = test system: Candida albicans; experiment: In vivo antifungal activity against Candida albicans TA infected in CDF-1 mouse dosed orally assessed as survival of mouse; conditions: po
[7] = test system: Candida albicans; experiment: Antifungal activity against Candida albicans MTCC183 assessed as reduction in fungal cell growth incubated for 24 to 48 hrs
[8] = test system: Aspergillus niger; experiment: Antifungal activity against Aspergillus niger MTCC281 assessed as reduction in fungal cell growth incubated for 24 to 48 hrs
[9] = test system: Alternaria solani; experiment: Antifungal activity against Alternaria solani assessed as inhibition of growth at 50 ug/ml; conditions: read-out: GI
[10] = test system: Botrytis cinerea; experiment: Antifungal activity against Botrytis cinerea assessed as inhibition of growth at 50 ug/ml; conditions: read-out: GI
[11] = test system: Mycosphaerella arachidis; experiment: Antifungal activity against Cercospora arachidicola assessed as inhibition of growth at 50 ug/ml; conditions: read-out: GI
[12] = test system: Fusarium graminearum; experiment: Antifungal activity against Gibberella zeae assessed as inhibition of growth at 50 ug/ml; conditions: read-out: GI
[13] = test system: Phytophthora infestans; experiment: Antifungal activity against Phytophthora infestans assessed as inhibition of growth at 50 ug/ml; conditions: read-out: GI
[14] = test system: Botryosphaeria berengeriana; experiment: Antifungal activity against Physalospora pyricola assessed as inhibition of growth at 50 ug/ml; conditions: read-out: GI
[15] = Antifungal activity against Pellicularia sasakii assessed as inhibition of growth at 50 ug/ml; conditions: read-out: GI
[16] = test system: Sclerotinia sclerotiorum; experiment: Antifungal activity against Sclerotinia sclerotiorum assessed as inhibition of growth at 50 ug/ml; conditions: read-out: GI
[17] = test system: Ceratobasidium cereale; experiment: Antifungal activity against Rhizoctonia cerealis assessed as inhibition of growth at 50 ug/ml; conditions: read-out: GI
[18] = test system: Cryptococcus neoformans; experiment: Antifungal activity against Cryptococcus neoformans LA314 assessed as reduction in fungal cell growth incubated for 48 hrs by broth microdilution method; conditions: LA314, 48 h
[19] = test system: Nakaseomyces glabratus; experiment: Antifungal activity against Candida glabrata assessed as reduction in fungal cell growth incubated for 48 hrs by broth microdilution method
[20] = test system: Candida parapsilosis; experiment: Antifungal activity against Candida parapsilosis ATCC 22019 assessed as reduction in fungal cell growth incubated for 48 hrs by broth microdilution method; conditions: Lodderomyces parapsilosis, ATCC 22019, 48 h
[21] = test system: Pichia kudriavzevii; experiment: Antifungal activity against Candida krusei assessed as reduction in fungal cell growth incubated for 48 hrs by broth microdilution method
[22] = test system: Candida albicans; experiment: Antifungal activity against Candida albicans assessed as reduction in fungal cell growth incubated for 48 hrs by broth microdilution method
[23] = test system: Candida tropicalis; experiment: Antifungal activity against Candida tropicalis assessed as reduction in fungal cell growth incubated for 48 hrs by broth microdilution method
[24] = test system: Aspergillus niger; experiment: Antifungal activity against Aspergillus niger assessed as reduction in fungal cell growth incubated for 72 hrs by broth microdilution method
[25] = test system: Candida tropicalis; experiment: Potency index, ratio for MIC of fluconazole to MIC of compound for Antifungal activity against Candida tropicalis assessed as reduction in fungal cell growth incubated for 48 hrs by broth microdilution method
[26] = test system: Candida parapsilosis; experiment: Potency index, ratio for MIC of fluconazole to MIC of compound for Antifungal activity against Candida parapsilosis ATCC 22019 assessed as reduction in fungal cell growth incubated for 48 hrs by broth microdilution method
[27] = test system: Nakaseomyces glabratus; experiment: Potency index, ratio for MIC of fluconazole to MIC of compound for antifungal activity against Candida glabrata assessed as reduction in fungal cell growth incubated for 48 hrs by broth microdilution method
[28] = test system: Cryptococcus neoformans; experiment: Potency index, ratio for MIC of fluconazole to MIC of compound for antifungal activity against Cryptococcus neoformans LA314 assessed as reduction in fungal cell growth incubated for 48 hrs by broth microdilution method
[29] = test system: Aspergillus niger; experiment: Potency index, ratio for MIC of fluconazole to MIC of compound for antifungal activity against Aspergillus niger
[30] = test system: Candida albicans; experiment: Potency index, ratio for MIC of fluconazole to MIC of compound for antifungal activity against Candida albicans V-01-191A-261 assessed as reduction in fungal cell growth incubated for 48 hrs by broth microdilution method

SMILES: Cn1nnnc1SCC(=O)Nc1ccc(-c2nc3cc(Cl)c(Cl)cc3n2C)cc1
- MIC [1]: 25 to 50 µg/mL (≈ 55.8 to 112 µM)
- MIC [2]: 25 to 50 µg/mL (≈ 55.8 to 112 µM)
- MIC [3]: 25 to 50 µg/mL (≈ 55.8 to 112 µM)

SMILES: C[C@@H](n1cnnn1)[C@](O)(Cn1cncn1)c1ccc(F)cc1F
- MIC [4]: 12.5 µg/mL (≈ 38.9 µM)
- Ratio [5]: 8
- ED50 [6]: 0.18 mg/kg

SMILES: c1cnc(-c2nn3nnnc3o2)cn1
- MIC [7]: 50 µg/mL (≈ 264 µM)
- MIC [8]: 100 µg/mL (≈ 529 µM)

SMILES: Cc1snnc1C(Nc1ccc([N+](=O)[O-])cc1)c1nnnn1C1CCCCC1 (stereo not given)
- inhibition of growth at 50 µg/mL [9]: 20 to 65.4%
- inhibition of growth at 50 µg/mL [10]: 20 to 65.4%
- inhibition of growth at 50 µg/mL [11]: 20 to 65.4%
- inhibition of growth at 50 µg/mL [12]: 20 to 65.4%
- inhibition of growth at 50 µg/mL [13]: 20 to 65.4%
- inhibition of growth at 50 µg/mL [14]: 20 to 65.4%
- inhibition of growth at 50 µg/mL [15]: 20 to 65.4%
- inhibition of growth at 50 µg/mL [16]: 20 to 65.4%
- inhibition of growth at 50 µg/mL [17]: 20 to 65.4%

SMILES: C[C@H](n1nnnc1CCN1CCN(c2cccc(C(F)(F)F)c2)CC1)[C@](O)(Cn1cncn1)c1ccc(F)cc1F
- MIC [18]: 0.12 to 1 µg/mL (≈ 0.208 to 1.73 µM)
- MIC [19]: 0.12 to 1 µg/mL (≈ 0.208 to 1.73 µM)
- MIC [20]: 0.12 to 1 µg/mL (≈ 0.208 to 1.73 µM)
- MIC [21]: 0.12 to 1 µg/mL (≈ 0.208 to 1.73 µM)
- MIC [22]: 0.12 to 16 µg/mL (≈ 0.208 to 27.7 µM)
- MIC [23]: 0.12 to 1 µg/mL (≈ 0.208 to 1.73 µM)
- MIC [24]: 0.12 to 1 µg/mL (≈ 0.208 to 1.73 µM)
- Ratio [25]: 16
- Ratio [26]: 16
- Ratio [27]: 16
- Ratio [28]: 16
- Ratio [29]: 16
- Ratio [30]: 16

Reference: ChEMBL document CHEMBL4393657, “Tetrazole hybrids and their antifungal activities” (2019)
